The values that follow come from PubChem BioAssay AID1329 (NMMLSC, 2008).

The source made the active and inactive calls. The rule behind the calls is not given here.

The target of the experiment is Induced myeloid leukemia cell differentiation protein Mcl-1 (Homo sapiens) (UniProt Q07820). Description: Mcl-1/Bim interaction regulators – biochemical, bead-based flow cytometry, multiplexed, human, dose response (AID 1329). The conditions noted are these: Bim peptide-Mcl-1 binding, MCF.
Sequence of Induced myeloid leukemia cell differentiation protein Mcl-1 (Homo sapiens) (Q07820 whole entry, looked up): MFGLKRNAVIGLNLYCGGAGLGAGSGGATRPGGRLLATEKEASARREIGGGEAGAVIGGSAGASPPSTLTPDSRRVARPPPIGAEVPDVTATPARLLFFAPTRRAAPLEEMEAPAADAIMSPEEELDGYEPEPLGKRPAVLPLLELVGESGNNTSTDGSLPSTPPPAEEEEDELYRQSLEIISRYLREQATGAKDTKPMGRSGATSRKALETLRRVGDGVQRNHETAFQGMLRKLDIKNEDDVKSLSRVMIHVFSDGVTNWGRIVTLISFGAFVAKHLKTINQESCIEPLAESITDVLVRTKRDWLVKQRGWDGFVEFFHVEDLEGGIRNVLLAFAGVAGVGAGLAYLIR
On to `Cc1[nH]c2ccccc2c1C(=O)COC(=O)c1c(-c2c(F)cccc2Cl)noc1C`, for which the percent span result is “inactive”.

`O=C1NC(=O)C(=Cc2ccc(-c3cc(Cl)ccc3[N+](=O)[O-])o2)C(=O)N1`: the percent span entry is “inactive”.

As to `O=C(NC1=C(Nc2ccc(Cl)cc2)C(=O)c2ccccc2C1=O)c1ccccc1`, the percent span entry is “inactive”.

For the compound `CCOc1ccc(C2=Nn3c(nnc3-c3ccco3)SC2)cc1`, the percent span result was “inactive”.

Turning to `Cc1ccc(/C=C/C2=Cc3c(sc(NC(=O)CSc4n[nH]c(N)n4)c3C#N)C(C)(C)C2)o1`, the percent span result is “inactive”.

For `Cc1ccc(-n2[nH]c(C)c(/C=N/Nc3ccc([N+](=O)[O-])cc3[N+](=O)[O-])c2=O)cc1C`, the percent span entry is “inactive”.

On to `COc1cc(CNc2ccc3[nH]c(=O)[nH]c3c2)cc(Br)c1OCC(=O)NC(C)(C)C`, for which the percent span result is “inactive”.

For the compound `CCOC(=O)c1cc2c(=O)n3cccc(C)c3nc2n(Cc2ccco2)c1=NC(=O)c1ccccc1`, the percent span entry is “inactive”.

For `CCc1cccc(CC)c1NC(=S)N1CCn2cccc2C1c1cccnc1` (stereo not given), the percent span entry is “inactive”.

In the case of `Cc1cc(-c2nnc(CCC(=O)NC(C)c3cccc4ccccc34)o2)no1` (stereo not given), the percent span result is “inactive”.

With `Cc1cc(C)c2nc3nc(C)cc(C)c3c(N)c2c1`, the percent span entry is “inactive”.

`C=CCN1C(=O)/C(=C/c2ccsc2)SC1=S`: the percent span entry was “inactive”.

As for `O=C(c1ccccc1NS(=O)(=O)c1ccc(Br)s1)N1CCCC1`, the percent span result is “inactive”.

For `CCOCCOc1nc2c(c(=O)n(C)c(=O)n2C)n1CCc1ccccc1`, the percent span result was “inactive”.

For the compound `BrC(=C\c1ccccc1)/C=N/N1CCN(c2ccccc2)CC1`, the percent span entry was “inactive”.

Consider `Cc1ccc(-c2cc(-c3ccccc3)c(C#N)c(N)n2)o1`, for which the percent span result is “inactive”.

Consider `Cc1cc(C)c(S(=O)(=O)/N=C2/C=C(SCC(=O)O)C(=O)c3ccccc32)cc1C`, for which the percent span result was “inactive”.

With `Cn1c(=O)c(C(=O)COC(=O)c2cc(-c3ccco3)nc3ccccc23)c(N)n(Cc2ccccc2)c1=O`, the percent span entry was “inactive”.

Turning to `Cc1ccccc1-n1c(SCc2cccc(F)c2)nc2[nH]ncc2c1=O`, the percent span entry is “inactive”.

For the compound `CC1=CC(=O)c2ccccc2C1=O`, the percent span entry is “inactive”.

As to `Oc1ccc(NCc2ccccc2OCc2ccccc2)cc1`, the percent span entry was “inactive”.

Regarding `CCSc1ncc(Cl)c(C(=O)Nc2sc3c(c2C(=O)NCc2cccnc2)CCCC3)n1`, the percent span result is “inactive”.

As to `CC(C)Cc1cc(-c2ccco2)c(C#N)c(N)n1`, the percent span result was “inactive”.

For the compound `C/C(=N\NC(=O)COc1ccc(C#N)cc1)c1ccccc1OC(F)F`, the percent span entry is “inactive”.

As for `Fc1ccc(/C=C2\CCCC3=C2NC(=S)NC3c2ccc(F)cc2)cc1` (stereo not given), the percent span result is “inactive”.

On to `O=C(Cc1ccccc1)OCCNC(=O)c1cccnc1`, for which the percent span result was “inactive”.

Regarding `CCN(CC)c1ccc(NC(=O)c2ccccc2)cc1S(=O)(=O)Nc1ccccc1OC`, the percent span entry was “inactive”.

Turning to `NC(=O)c1c(NC(=O)C2CCCO2)sc2c1CCCC2` (stereo not given), the percent span entry is “inactive”.

As to `COc1ccc(CC(=O)Nc2ccc(-c3nc4cc(C)ccc4o3)c(O)c2)cc1OC`, the percent span entry was “inactive”.

On to `CN(C)[C@@H]1C(=O)C(C(=O)NCN2CCCC2)=C(O)[C@@]2(O)C(=O)C3=C(O)c4c(O)cccc4[C@@](C)(O)C3CC12` (stereo not given in full), for which the percent span result was “inactive”.

Turning to `COc1ccc(CC(=O)Nc2ccc3nc(C)sc3c2)cc1OC`, the percent span result was “inactive”.

In the case of `CN(C)C(Cc1ccccc1)C(=O)c1cccs1` (stereo not given), the percent span result is “inactive”.

Consider `CN1CCN(c2ccc(N)cc2)CC1`, for which the percent span entry is “inactive”.

Take `CN(Cc1ccccc1)C(=O)c1[nH]cnc1C(=O)N[C@@H](CCCCNC(=O)OC(C)(C)C)C(=O)OC(C)(C)C`: the percent span entry is “inactive”.

For the compound `CSc1nnc2c3cc(C)ccc3n(Cc3ccccc3)c2n1`, the percent span entry was “inactive”.

As for `CN1N=C(C(=O)N2CCCC(C(=O)c3cccc(C(F)(F)F)c3)C2)CCC1=O` (stereo not given), the percent span entry was “inactive”.

For `O=C1C(Cl)=C(Nc2ccccc2O)C(=O)N1c1ccccc1`, the percent span entry is “inactive”.

`CC1(C)CC(=O)C(C=NCCN2CCN(CCc3ccccc3)CC2)=C(O)C1`: the percent span entry is “inactive”.

Turning to `O=C1c2ccccc2C(=O)c2cc(S(=O)(=O)Nc3ccccc3)ccc21`, the percent span entry was “inactive”.

`COc1cc(NC(=O)c2ccc3c(c2)OCO3)ccc1NC(=O)c1ccco1`: the percent span entry was “inactive”.

Consider `O=C(C[n+]1ccc(-c2nnc3n2CCC3)cc1)c1ccc(Cl)cc1`, for which the percent span result was “inactive”.

For the compound `O=C(Nc1nnc(COc2ccc(Cl)cc2)s1)c1ccco1`, the percent span result is “inactive”.

Turning to `COP(=O)(CC(=O)O)c1ccccc1` (stereo not given), the percent span result is “inactive”.

For the compound `COc1ccc(CC(=O)Nc2ccccc2Oc2ccccc2)cc1`, the percent span result is “inactive”.

On to `Cn1c(=O)c(C(=O)COC(=O)c2cc(-c3ccco3)nc3ccccc23)c(N)n(CC2CC2)c1=O`, for which the percent span entry is “inactive”.

As to `CNC(=O)c1sc(-c2ccccn2)nc1C`, the percent span entry was “inactive”.

On to `Cc1ccc2nc3c(cc(C(N)=S)c(=N)n3CCCOC(C)C)c(=O)n2c1`, for which the percent span entry is “inactive”.

As for `CN1/C(=C\C(=O)Nc2ccc(Cl)cc2)C(C)(C)c2ccccc21`, the percent span result was “inactive”.

Take `CCOc1ccccc1NC(=O)CSc1nnc2ccc(-c3cccnc3)nn12`: the percent span result was “inactive”.

Turning to `CCCCCCn1nc(C(=O)Nc2nc3c(s2)CCCC3)c2ccccc2c1=O`, the percent span entry is “inactive”.

Consider `CCc1nn2cc(C(=O)c3cc(C)ccc3O)cnc2c1-c1ccc(F)cc1`, for which the percent span result was “inactive”.

With `CC(=O)Nc1ccc2nc(CN3CCN(CC(C)C)C(CCO)C3)ccc2c1` (stereo not given), the percent span entry was “inactive”.

With `Cc1ccc(-c2cc(-c3ccc(F)cc3)c(C#N)c(N)n2)o1`, the percent span entry is “inactive”.

`COc1ccc(NC(=O)c2sccc2SCc2cccc(C(F)(F)F)c2)cc1`: the percent span result is “inactive”.

For the compound `N/C(=N\OC(=O)CCC1CCCC1)c1ccncc1`, the percent span result was “inactive”.

Take `COc1ccccc1Oc1ccc2c(c1)C(=O)N(c1ccccc1)C2=O`: the percent span entry is “inactive”.

For `Cc1cccc(/C=N/N(CCO)C2=NS(=O)(=O)c3ccccc32)c1`, the percent span result was “inactive”.

As for `Cc1cc(NC(=O)CCSc2ccccc2)ccc1Br`, the percent span entry is “inactive”.

`O=C(NCCN1CCOCC1)c1cc(Cl)ccc1[N+](=O)[O-]`: the percent span result is “inactive”.

On to `CC1Nc2ccccc2C(=O)N1NS(C)(=O)=O` (stereo not given), for which the percent span entry was “inactive”.

For the compound `Cc1noc(C)c1CN1C(=O)NC(Cc2ccccc2)(Cc2ccccc2)C1=O`, the percent span result was “inactive”.

With `O=C1CCc2cc(S(=O)(=O)NCCCC(=O)N3CCN(Cc4ccc5c(c4)OCO5)CC3)ccc2N1`, the percent span result was “inactive”.

As for `COc1ccc(CN(C)CC(=O)NC(C)c2ccccc2)c(OC)c1` (stereo not given), the percent span entry was “inactive”.

For `COc1cccc(/C=N/Nc2nn3cnnc3c3ccccc23)c1O`, the percent span result is “inactive”.

Take `COc1ccccc1N(C)S(=O)(=O)c1ccc(C(=O)OCC(N)=O)cc1`: the percent span entry is “inactive”.
